{"source": "patent US20090023630A1", "about": "“Methods and Means for Use in Diagnostics and Treatment of Diabetes” (priority 2005, published 2009)", "note": "Ends that are not written are not given here.", "data": [{"molecular_target": "HLA-A*0201 (Homo sapiens, UniProt P04439, D140Y/D185E/D98H/E176V/E277Q/G131W/G231S/I119V/I121R/I166T/I218V/L300P/L318F/N151K/N90K/P208A/P217A/Q86G/Q94H/R138H/R169H/T345S)", "test": "Peptide-HLA binding (competition with Fl-labeled HLA-A*0201 binding peptide)", "settings": "not given", "experimental": "(§1) Peptide binding was assessed as described (21). […] HLA-bound and non-bound Fl-labeled peptides were separated by HPLC gel permeation chromatography with fluorescence detection. The concentration at which the test peptide reduced the amount of HLA-bound Fl-labeled peptide by 50% (IC50) was calculated using non-linear regression analysis. To select candidate HLA-A*0201 binding peptides from the insulin B chain, the molecule was screened for HLA-A*0201 binding motif containing peptides with a combination of two known binding prediction algorithms (18).", "units": {"IC50": "µM"}, "values": [{"molecule": "ALYLVCGER [Peptide 14-22]", "IC50": 90.2}, {"molecule": "HLCGSHLVEA [Peptide 5-14]", "IC50": 0.06}, {"molecule": "HLVEALYLVCG [Peptide 10-20]", "IC50": 0.19}, {"molecule": "LVEALYLVC [Peptide 11-19]", "IC50": 3.6}, {"molecule": "SHLVEALYLV [Peptide 9-18]", "IC50": 1.37}]}, {"molecular_target": "HLA-A*0201 (Homo sapiens, UniProt P04439, D140Y/D185E/D98H/E176V/E277Q/G131W/G231S/I119V/I121R/I166T/I218V/L300P/L318F/N151K/N90K/P208A/P217A/Q86G/Q94H/R138H/R169H/T345S)", "test": "Peptide-HLA binding (competition with Fl-labeled HLA-A*0201 binding peptide)", "settings": "peptide concentration needed to inhibit binding of FL-labeled reference peptide for 50%; read-out: IC50 (binding affinity for HLA-A*0201)", "experimental": "as §1", "units": {"IC50": "µM"}, "values": [{"molecule": "CC(C)C[C@H](NC(=O)[C@H](C)N)C(=O)N[C@@H](Cc1ccc(O)cc1)C(=O)N[C@@H](CC(C)C)C(=O)N[C@H](C(=O)N[C@@H](CS)C(=O)NCC(=O)N[C@@H](CCC(=O)O)C(=O)N[C@@H](CCCNC(=N)N)C(=O)NCC(=O)O)C(C)C", "note": "[Peptide 14-23]", "IC50": "> 100"}, {"molecule": "ALYLVCGERGF [Peptide 14-24]", "IC50": 2.26}, {"molecule": "GSHLVEALYLV [Peptide 8-18]", "IC50": 3.73}, {"molecule": "HLCGSGLVEAL [Peptide 5-15, HLCGSGLVEAL]", "IC50": 0.44}, {"molecule": "HLVEALYLVC [Peptide 10-19]", "IC50": 1.75}, {"molecule": "QHLCGSHLV [Peptide 4-12]", "IC50": 9.12}, {"molecule": "SHLVEALYL [Peptide 9-17]", "IC50": 59.5}, {"molecule": "YLVCGERGFF [Peptide 16-25]", "IC50": 2.3}, {"molecule": "YLVCGERGFFY [Peptide 16-26]", "IC50": 8.59}]}]}
